Earlier results in patent US20140106406A1, “GENE CLUSTER FOR THE PRODUCTION OF GOUGEROTIN, GOUGEROTIN ANALOGUES, AND PRECURSORS THEREOF” (Bayer Cropscience LP, priority 2012, published 2014).

Experiments:
powdery mildew = conditions: against powdery mildew
[1] = system: parasites on animals, such as pin worm
[2] = system: gram-positive, gram-negative bacteria and tubercule bacillus

NC(N)=NCC(O)CC(O)(C(=O)O)[C@H]1O[C@@H](n2cc(CO)c(N)nc2=O)C=C[C@@H]1NC(=O)[C@@H](N)CO (stereo partly drawn) [antibiotic B-98891]
antifungal activity (powdery mildew): antifungal activity

CNCC(=O)NC(CO)C(=O)NC1C(C(N)=O)OC(n2ccc(N)nc2=O)C(O)C1O (stereo not drawn) [gougerotin]
parasiticidal action [1]: parasiticidal action
antibacterial activity [2]: weak antibacterial activity
